Laboratory results reported in ChEMBL document CHEMBL1201862, “PubChem BioAssay data set” (2004).
Calls of active or inactive are those of the source.

Assays:
Large T antigen = Large T antigen (Simian virus 40, UniProt P03070); assay type: functional, Betapolyomavirus macacae;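 note: Confirmatory-stage PubChem screen for compounds that inhibit SV40 T antigen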
[1] = target: FAD-linked sulfhydryl oxidase ALR (Homo sapiens, UniProt P55789); assay: inhibitors of human ALR sulfhydryl oxidase, dose response, biochemical, H2O2 detection, luminescence, cherry-pick (AID 493248)
Sequence of FAD-linked sulfhydryl oxidase ALR (P55789 whole entry): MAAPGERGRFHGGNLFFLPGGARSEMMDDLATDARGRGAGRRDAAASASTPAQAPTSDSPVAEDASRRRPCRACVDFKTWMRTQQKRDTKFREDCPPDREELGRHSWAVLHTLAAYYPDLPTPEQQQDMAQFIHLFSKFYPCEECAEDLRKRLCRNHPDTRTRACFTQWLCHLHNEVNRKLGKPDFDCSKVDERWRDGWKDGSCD

[2] = target: T1, Ubiquitin-conjugating enzyme E2 N (Homo sapiens, UniProt P61088); assay type: functional;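 note: Dose-response confirmation in a TR-FRET assay detecting UBC13-driven polyubiquitin chain formation, inhibition measured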
T1 sequence (P61088 whole entry): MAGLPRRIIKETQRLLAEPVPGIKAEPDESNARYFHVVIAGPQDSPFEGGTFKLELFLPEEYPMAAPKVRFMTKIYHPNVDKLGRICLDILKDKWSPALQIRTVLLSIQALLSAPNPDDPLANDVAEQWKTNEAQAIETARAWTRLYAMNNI

[3] = target: T2, Zinc finger protein mex-5 (Caenorhabditis elegans, UniProt Q9XUB2); assay: MEX-5/TCR-2 RNA interaction inhibitors, dose response, biochemical, C. elegans, fluorescence polarization (AID 1960)
T2 sequence (Q9XUB2 whole entry): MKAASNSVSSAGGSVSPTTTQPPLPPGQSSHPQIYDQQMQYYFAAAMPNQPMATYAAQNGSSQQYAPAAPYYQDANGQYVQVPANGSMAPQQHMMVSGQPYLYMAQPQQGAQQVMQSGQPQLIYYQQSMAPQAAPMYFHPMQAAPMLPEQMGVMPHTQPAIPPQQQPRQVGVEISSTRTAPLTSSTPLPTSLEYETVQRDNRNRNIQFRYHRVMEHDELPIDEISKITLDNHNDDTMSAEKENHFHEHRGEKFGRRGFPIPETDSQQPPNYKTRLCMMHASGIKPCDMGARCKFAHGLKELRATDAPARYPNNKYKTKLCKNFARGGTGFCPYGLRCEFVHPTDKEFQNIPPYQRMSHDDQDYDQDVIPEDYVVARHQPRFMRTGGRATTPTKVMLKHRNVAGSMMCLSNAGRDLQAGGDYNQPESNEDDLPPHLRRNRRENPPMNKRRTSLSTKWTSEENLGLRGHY

[4] = target: T3, RNA-binding protein pos-1 (Caenorhabditis elegans, UniProt G5EF15); assay: inhibitors of POS-1/mex-3 RNA binding, dose response, biochemical, fluorescence polarization (AID 1964);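 note: purified POS-1 fused to maltose binding protein made in E. coli; potency of compounds blocking POS-1 binding to fluorescent RNA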
T3 sequence (G5EF15 whole entry): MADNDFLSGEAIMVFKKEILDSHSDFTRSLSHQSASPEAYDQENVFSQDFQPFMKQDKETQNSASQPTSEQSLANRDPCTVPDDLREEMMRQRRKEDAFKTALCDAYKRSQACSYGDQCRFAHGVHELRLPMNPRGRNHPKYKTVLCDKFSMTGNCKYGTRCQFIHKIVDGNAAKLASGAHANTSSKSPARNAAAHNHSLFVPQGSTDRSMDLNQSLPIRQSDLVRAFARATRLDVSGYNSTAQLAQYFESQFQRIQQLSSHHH

[5] = Luminescence Cell-Based Dose Response HTS to Identify Inhibitors of 5'UTR Stem-Loop Driven Prion Protein mRNA Translation in H4 Neuroglioblastoma Cells. [Related pubchem assays: 1827 (Project Summary), 1813 (Primary HTS)]; assay type: functional
[6] = inhibitors of firefly luciferase expression or activity, dose response, H4 neuroglioma cells, luminescence (AID 1990); assay type: functional, cell-based
[7] = target: T4, Replicative DNA helicase DnaB (Mycobacterium tuberculosis, UniProt P9WMR3); assay: DnaB intein splicing inhibitors, dose response, biochemical, cell-free fluorescence (AID 449749); assay type: functional
T4 sequence (P9WMR3 whole entry): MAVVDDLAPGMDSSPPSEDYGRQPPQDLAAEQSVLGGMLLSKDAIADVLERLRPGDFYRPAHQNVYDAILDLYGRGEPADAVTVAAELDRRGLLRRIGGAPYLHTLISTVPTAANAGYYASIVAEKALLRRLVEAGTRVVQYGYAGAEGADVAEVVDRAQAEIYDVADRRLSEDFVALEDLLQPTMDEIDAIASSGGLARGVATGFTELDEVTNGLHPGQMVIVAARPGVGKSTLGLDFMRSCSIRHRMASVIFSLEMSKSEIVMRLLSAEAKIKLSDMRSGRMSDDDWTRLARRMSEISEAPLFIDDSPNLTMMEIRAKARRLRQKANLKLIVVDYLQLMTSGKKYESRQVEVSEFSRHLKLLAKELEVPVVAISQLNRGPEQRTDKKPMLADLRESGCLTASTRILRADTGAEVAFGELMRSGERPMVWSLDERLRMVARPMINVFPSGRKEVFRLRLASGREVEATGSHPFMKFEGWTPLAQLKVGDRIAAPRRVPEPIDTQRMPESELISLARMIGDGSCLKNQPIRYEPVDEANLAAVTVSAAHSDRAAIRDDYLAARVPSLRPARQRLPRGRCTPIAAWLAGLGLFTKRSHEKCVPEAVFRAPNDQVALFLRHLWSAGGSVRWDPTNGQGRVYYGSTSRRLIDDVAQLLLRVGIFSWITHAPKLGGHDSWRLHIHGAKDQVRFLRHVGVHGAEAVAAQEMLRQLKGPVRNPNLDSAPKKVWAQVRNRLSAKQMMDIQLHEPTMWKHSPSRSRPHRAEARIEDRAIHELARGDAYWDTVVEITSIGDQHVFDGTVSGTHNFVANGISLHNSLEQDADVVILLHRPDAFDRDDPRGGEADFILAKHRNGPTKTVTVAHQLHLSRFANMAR

Protein RecA = target: T5, Protein RecA (Mycobacterium tuberculosis, UniProt P9WHJ3); assay: Fluorescence Cell-Free Homogeneous Dose Retest to Identify Inhibitors of RecA-Intein Splicing Activity. [Related pubchem assays (depositor defined):AID2097, AID2223, AID489010, AID492950]; assay type: functional
T5 sequence (P9WHJ3 whole entry): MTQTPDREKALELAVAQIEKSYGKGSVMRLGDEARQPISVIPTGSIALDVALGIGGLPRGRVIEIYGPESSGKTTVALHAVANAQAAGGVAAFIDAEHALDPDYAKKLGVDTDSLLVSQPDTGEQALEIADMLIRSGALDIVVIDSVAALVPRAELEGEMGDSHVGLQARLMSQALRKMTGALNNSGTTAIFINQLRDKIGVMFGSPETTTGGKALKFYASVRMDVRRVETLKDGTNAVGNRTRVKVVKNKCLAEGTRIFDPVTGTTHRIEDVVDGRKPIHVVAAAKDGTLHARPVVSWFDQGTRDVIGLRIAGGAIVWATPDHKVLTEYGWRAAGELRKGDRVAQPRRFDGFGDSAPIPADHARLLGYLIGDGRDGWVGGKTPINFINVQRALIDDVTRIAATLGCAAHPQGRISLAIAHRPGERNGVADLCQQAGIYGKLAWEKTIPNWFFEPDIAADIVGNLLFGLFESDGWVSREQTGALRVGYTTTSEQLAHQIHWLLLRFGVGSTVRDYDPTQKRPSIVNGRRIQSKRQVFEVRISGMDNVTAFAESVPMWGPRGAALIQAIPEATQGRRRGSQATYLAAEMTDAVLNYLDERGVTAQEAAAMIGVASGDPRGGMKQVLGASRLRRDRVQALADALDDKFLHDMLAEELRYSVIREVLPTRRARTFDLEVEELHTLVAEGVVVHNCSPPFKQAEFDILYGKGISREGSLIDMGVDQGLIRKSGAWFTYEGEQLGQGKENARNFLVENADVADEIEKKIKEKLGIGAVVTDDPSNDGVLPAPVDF

[8] = inhibitors of SNCA 5'UTR-driven reporter translation, confirmation, H4 neuroglioma cells, luminescence (AID 1988); assay type: functional, cell-based
[9] = target: T6, Polyadenylate-binding protein 1 (Homo sapiens, UniProt P11940); assay: PABP1 MLLE–PAM2 binding inhibitor potency, dose response, biochemical, fluorescence polarization, FITC-PAM2 peptide (AID 602259); assay type: functional; conditions: read-out: IC50_Mean
T6 sequence (P11940 whole entry): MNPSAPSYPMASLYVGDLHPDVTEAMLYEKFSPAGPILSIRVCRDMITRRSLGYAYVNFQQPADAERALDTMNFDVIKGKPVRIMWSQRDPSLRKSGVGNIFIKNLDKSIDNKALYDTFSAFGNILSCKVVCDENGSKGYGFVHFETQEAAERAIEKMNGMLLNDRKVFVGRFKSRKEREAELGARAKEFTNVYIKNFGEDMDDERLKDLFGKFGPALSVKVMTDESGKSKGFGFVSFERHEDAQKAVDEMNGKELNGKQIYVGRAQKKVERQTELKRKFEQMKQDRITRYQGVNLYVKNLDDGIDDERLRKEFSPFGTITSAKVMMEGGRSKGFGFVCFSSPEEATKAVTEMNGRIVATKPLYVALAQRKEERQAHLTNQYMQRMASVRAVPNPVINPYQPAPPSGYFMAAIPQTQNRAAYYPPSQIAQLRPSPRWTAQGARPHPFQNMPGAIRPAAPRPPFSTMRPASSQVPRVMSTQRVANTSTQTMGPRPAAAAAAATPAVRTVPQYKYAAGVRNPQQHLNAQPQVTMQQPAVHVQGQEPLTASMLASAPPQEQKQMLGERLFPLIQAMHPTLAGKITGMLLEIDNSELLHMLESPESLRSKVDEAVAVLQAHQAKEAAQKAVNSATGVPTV

INS1 = assay: beta cell apoptosis inhibitors, cytokine rescue, dose response, luminescence, retest (AID 449756); assay type: functional, cell-based; conditions: Rattus norvegicus;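 note: cell death triggered by IL-1 beta plus TNF-alpha plus IFN-gamma mixture; protective hits raise ATP signal compared with cytokine alone wells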
[10] = target: T6, Polyadenylate-binding protein 1; assay: PABP1 MLLE–PAM2 interaction inhibitors, dose response, miRNA deadenylation inhibitor project, biochemical, fluorescence polarization, Cy5-PAM2 peptide, secondary (AID 602260); assay type: functional; conditions: read-out: IC50_Mean
[11] = cytotoxicity toward NIH3T3 fibroblasts, dose response, counter-screen, cell-based, ATP luminescence, mouse fibroblasts (AID 2010); assay type: functional;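 note: cells exposed to compound for about 90 hours before reading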
[12] = inhibitors of intracellular T. cruzi replication, confirmation, NIH3T3 host cells, beta-gal luminescence (AID 2044); assay type: functional, cell-based;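 note: intracellular parasites grown in NIH/3T3 mouse fibroblasts as host cells; luminescent beta-galactosidase reporter signal from transgenic T. cruzi replicating inside host cells; inhibitors lower the luminescence signal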
Cytochrome P450 3A4 = Cytochrome P450 3A4 (Homo sapiens, UniProt P08684);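 note: CYP3A4 tested as one member of a cytochrome P450 panel screen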
Sequence of Cytochrome P450 3A4 (P08684 whole entry): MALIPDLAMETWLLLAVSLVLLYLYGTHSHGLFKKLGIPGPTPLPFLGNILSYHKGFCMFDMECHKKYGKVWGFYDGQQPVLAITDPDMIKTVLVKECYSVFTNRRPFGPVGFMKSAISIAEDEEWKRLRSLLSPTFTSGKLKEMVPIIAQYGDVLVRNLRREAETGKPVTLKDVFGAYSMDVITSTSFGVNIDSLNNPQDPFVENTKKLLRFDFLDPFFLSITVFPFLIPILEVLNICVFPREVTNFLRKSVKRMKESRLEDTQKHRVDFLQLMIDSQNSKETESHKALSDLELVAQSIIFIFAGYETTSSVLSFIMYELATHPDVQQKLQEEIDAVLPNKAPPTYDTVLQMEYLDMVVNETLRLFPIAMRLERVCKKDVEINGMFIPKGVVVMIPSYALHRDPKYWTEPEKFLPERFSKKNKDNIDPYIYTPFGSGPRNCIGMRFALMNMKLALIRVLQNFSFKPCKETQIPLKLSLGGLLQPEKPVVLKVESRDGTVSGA

cells = assay type: functional
[13] = target: T7, Rac GTPase-activating protein 1 (Homo sapiens, UniProt Q9H0H5); assay: MgcRacGAP GTPase-activating activity inhibitors, confirmation, biochemical, ADP Hunter fluorescence, primary and confirmatory (AID 624330); assay type: functional
T7 sequence (Q9H0H5 whole entry): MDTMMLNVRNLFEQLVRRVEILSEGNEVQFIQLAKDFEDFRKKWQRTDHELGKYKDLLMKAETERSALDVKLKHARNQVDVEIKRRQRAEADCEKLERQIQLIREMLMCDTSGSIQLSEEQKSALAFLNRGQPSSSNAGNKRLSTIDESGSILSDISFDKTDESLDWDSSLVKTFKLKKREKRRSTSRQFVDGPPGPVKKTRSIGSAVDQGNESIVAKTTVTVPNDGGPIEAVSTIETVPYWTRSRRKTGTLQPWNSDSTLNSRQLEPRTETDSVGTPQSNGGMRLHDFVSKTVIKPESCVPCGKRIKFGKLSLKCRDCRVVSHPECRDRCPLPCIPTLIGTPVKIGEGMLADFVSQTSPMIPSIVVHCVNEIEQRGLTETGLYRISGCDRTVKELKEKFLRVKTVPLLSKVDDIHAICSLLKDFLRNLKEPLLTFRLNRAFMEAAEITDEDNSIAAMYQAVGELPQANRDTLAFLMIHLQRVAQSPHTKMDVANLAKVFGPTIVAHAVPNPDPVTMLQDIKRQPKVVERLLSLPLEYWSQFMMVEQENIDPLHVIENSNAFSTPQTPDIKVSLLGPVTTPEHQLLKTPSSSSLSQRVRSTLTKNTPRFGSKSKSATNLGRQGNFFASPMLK

Sequence of Large T antigen (P03070 whole entry): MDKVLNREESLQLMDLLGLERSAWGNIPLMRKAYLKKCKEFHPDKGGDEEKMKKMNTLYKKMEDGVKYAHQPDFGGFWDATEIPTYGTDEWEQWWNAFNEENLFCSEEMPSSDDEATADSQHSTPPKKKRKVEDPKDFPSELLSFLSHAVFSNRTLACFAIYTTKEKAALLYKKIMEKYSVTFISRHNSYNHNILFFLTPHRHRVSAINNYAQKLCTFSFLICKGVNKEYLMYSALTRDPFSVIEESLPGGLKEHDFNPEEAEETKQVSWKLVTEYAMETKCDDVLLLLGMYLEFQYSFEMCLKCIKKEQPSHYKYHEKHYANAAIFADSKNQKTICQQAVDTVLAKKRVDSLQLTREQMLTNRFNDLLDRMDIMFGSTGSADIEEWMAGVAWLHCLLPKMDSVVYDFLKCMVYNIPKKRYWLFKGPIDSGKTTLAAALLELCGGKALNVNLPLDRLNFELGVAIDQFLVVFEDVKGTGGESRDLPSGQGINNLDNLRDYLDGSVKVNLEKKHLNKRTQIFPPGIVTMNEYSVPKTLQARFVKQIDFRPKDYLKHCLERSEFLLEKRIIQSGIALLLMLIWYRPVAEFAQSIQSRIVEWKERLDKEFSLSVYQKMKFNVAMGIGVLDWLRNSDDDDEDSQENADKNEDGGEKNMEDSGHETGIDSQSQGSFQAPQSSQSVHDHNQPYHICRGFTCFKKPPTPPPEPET

Cc1cc2c(Nc3ccc(O)cc3)ncnc2s1
IC50 (Large T antigen): 5.5 µM (active)

CCN(CC)c1ccc(NC(=O)c2cccnc2)cc1
IC50 (Large T antigen): 13.5 µM (active)
AC50 [1]: 327 nM (active)

O=C(NCC(c1ccco1)N1CCc2ccccc21)c1ccccc1 (centres undefined)
AC50 [1]: 1210 nM (active)

O=C(CCCn1c(=S)[nH]c2ccsc2c1=O)NCCc1ccccc1
IC50 [2]: > 20 µM (inactive)

O=C(CCN1C(=O)C2CC=C(Cl)CC2C1=O)N1CCCCC1 (centres undefined)
EC50 [3]: 18.1 µM (active)
EC50 [4]: 29.5 µM (active)

CCN(CC)C(=O)CSc1nnc2nnc3cc(OC)ccc3n12
EC50 [3]: 5.43 µM (active)
EC50 [5]: > 120 µM (not active)
EC50 [6]: 14.9 µM (active)
AC50 [7]: > 380 µM (inactive)
EC50 [4]: 7.7 µM (active)
EC50 (Protein RecA): 128 µM (active)
EC50 [8]: 10.8 µM (active)

COc1cc(C(=O)Nc2ccc(O)cc2)ccc1OC(C)=O
IC50 (Large T antigen): 6.12 µM (active)

O=C(NNC(=O)c1ccccc1O)c1ccco1
EC50 [3]: 19.4 µM (active)
EC50 [4]: 24 µM (active)

CCc1cc(SC#N)cc(C)c1NC(=O)CCl
IC50 [9]: > 66 µM (inactive)
AC50 (INS1): 5.76 µM (active)
IC50 (Large T antigen): > 100 µM (active)
IC50 [10]: > 66 µM (inactive)

Cc1ccc(S(=O)(=O)N2CCOCC2)cc1NC(=O)CN(C)C1CCS(=O)(=O)C1 (centres undefined)
EC50 [3]: > 300 µM (not active)
EC50 [4]: > 300 µM (not active)

C=CCn1c(SCc2ccc(Cl)cc2)nc2cc(C(=O)N3CCC(C(N)=O)CC3)ccc2c1=O
IC50 [2]: > 20 µM (inactive)

Clc1ccc2nc(N3CCCCC3)[nH]c2c1
AC50 [1]: 4040 nM (active)

CN1CCCc2cc3c(C(F)(F)F)cc(=O)oc3nc21
EC50 [3]: 25.7 µM (inconclusive)
EC50 [4]: 24.9 µM (active)

O=C(NCC(c1cccnc1)N1CCN(c2ccc(F)cc2)CC1)c1ccco1 (centres undefined)
EC50 [11]: > 60 µM (inconclusive)
EC50 [12]: 460 nM (active)
AC50 [1]: 4660 nM (active)

Cc1ccc(N2C(=O)/C(=C/c3ccc(CN(CCC#N)S(C)(=O)=O)o3)C(=O)NC2=S)cc1C
AC50 (Cytochrome P450 3A4): 22.4 µM (inconclusive)
EC50 [3]: 9.89 µM (active)
EC50 [4]: 15.5 µM (active)

COc1ccc(C(=O)NN=C(C)/C=C(\O)c2ccccc2)cc1
IC50 (cells): > 50 µM (active)

CC1CN(S(=O)(=O)c2cccc(C(=O)N(Cc3nnc(-c4ccccc4Cl)o3)C3CC3)c2)CC(C)O1 (centres undefined)
IC50 [2]: > 20 µM (inactive)

O=C(NCc1ccccn1)c1ccc2c(c1)N(Cc1ccccc1)CCS2
AC50 [1]: 511 nM (active)

COc1cc(/C=C2\NC(=S)N(C)C2=O)ccc1O
IC50 (Large T antigen): 3.22 µM (active)

N#CC1=C(N)OC2=C(C(=O)CCC2)C12C(=O)N1CCCc3cccc2c31 (centres undefined)
EC50 [3]: > 300 µM (not active)
EC50 [4]: > 300 µM (not active)

Cc1sc(/C=C2\C(=O)ON=C2c2ccccc2)cc1Br
EC50 [3]: 7.46 µM (inconclusive)
EC50 [4]: 24.1 µM (inconclusive)

CC(=O)Nc1ccc(Nc2nc3ccccc3nc2NS(=O)(=O)c2ccccc2)cc1
AC50 [1]: 130 nM (active)

CC(=O)Nc1ccc(S(=O)(=O)Nc2ccc(Nc3ccccc3)cc2)cc1
IC50 [13]: 70.1 µM (active)
AC50 [1]: 268 nM (active)

O=C(Nc1ccccc1N1CCCC1)c1ccc(N2CCCC2=O)cc1
AC50 [1]: 1550 nM (active)

Cc1nnc(N/N=C/c2ccc(Br)cc2)n1N
IC50 (cells): 2.75 µM (active)

COc1cc(/C=N/N(C)C)ccc1OC(=O)c1cccs1
IC50 (cells): 24.2 µM (active)

O=C(CN1CCOCC1)N/N=C/c1ccc(-c2ccc(Br)cc2)o1
IC50 (cells): > 50 µM (active)

Cc1ccc(S(=O)(=O)Nc2nc(C)cc(N/N=C/c3ccc(O)cc3)n2)cc1
IC50 (Large T antigen): 10.6 µM (active)
